We go through two compounds from publication PMC11562385 (RSC Chemical Biology, 2024).

One data set has as its target T1, PD1:PDL1 interaction (Homo sapiens, UniProt Q15116).
T1 construct: purchased BPS Bioscience 72005
Kind of data set: PD1/PDL1 immunoblocking ELISA (BPS Bioscience kit cat # 72005). It counts as binding. To be noted: for LE (ligand efficiency): LE = -RTln(EC50)/HA, HA = non-hydrogen atoms omitting the strap (RWV•••VWE). A general note: In an ELISA, binding on a coated surface is turned into a signal by an enzyme label.

The nature of data set [1]: Variable-temperature CD melting curves (CD-melts at 228±2 nm and 202±2 nm), individual and global two-state fits. It counts as physicochemical. Particulars: for ΔGF0: CD-melt at 228±2 nm, individual two-state Gibbs-Helmholtz fit (Origin 9.0), 0-95 °C, phosphate buffer 15 mM pH 6.5 ± MeOH; for Tm / Hairpin %-fold 291K / Hairpin %-fold 310K: Table S5, individual fit; for Tm: 228±2 nm; for -TΔSF0 / ΔCpF0 / ΔHF0 / ΔHm: as E16; for VT-CD %-fold: folded fraction (χF) at 25 °C from CD-melts, (R) regular / (B) bulged fold; for %fold 291K: fraction folded at 291 K from two-state fit of CD-melt; for DHm (fitted value, OriginPro two-state fit of CD-melt) / Tm (fitted value, OriginPro two-state fit of CD-melt): variable-temperature CD melt 0-95 °C, θ - θcoil(95) vs T, l = 0.1 cm, individual two-state fit. A digest of the protocol:
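Far-UV CD melts (0 to 95 °C) at 15-120 µM peptide in 15 mM phosphate buffer, concentration set by Trp/Tyr absorbance at 280 nm; CD-exciton intensity taken as %-folding probe. Melting curves fitted individually and globally to a two-state model.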

Setting [2] is: phosphate buffer 15 mM pH 6.5, up to 20% MeOH.

Peptide text beside a SMILES is read from it.

T1 sequence (Q15116 25-167 limits assumed): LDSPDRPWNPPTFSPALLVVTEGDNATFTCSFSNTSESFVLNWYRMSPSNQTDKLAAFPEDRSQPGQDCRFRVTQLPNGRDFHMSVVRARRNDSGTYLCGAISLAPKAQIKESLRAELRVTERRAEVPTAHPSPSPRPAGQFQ

With `CSCC[C@H](NC(=O)[C@H](CC(=O)O)NC(=O)[C@H](Cc1ccccc1)NC(=O)[C@H](CCCNC(=N)N)NC(=O)[C@H](Cc1ccc(O)cc1)NC(=O)[C@H](CC(=O)O)NC(=O)[C@H](CCCNC(=N)N)NC(=O)[C@H](CCCNC(=N)N)NC(=O)[C@H](C)NC(=O)[C@@H](NC(=O)[C@H](Cc1c[nH]c2ccccc12)NC(=O)[C@@H](N)CCCNC(=N)N)C(C)C)C(=O)NCC(=O)N[C@@H](Cc1ccccc1)C(=O)N[C@@H](CC(=O)O)C(=O)N[C@@H](Cc1ccc(O)cc1)C(=O)N[C@@H](Cc1c[nH]c2ccccc12)C(=O)N[C@@H](Cc1c[nH]cn1)C(=O)N[C@@H](Cc1c[nH]c2ccccc12)C(=O)N[C@@H](CCC(=O)O)C(=O)O` [2e] (H-RWVARRDYRFDMGFDYWHWE-OH), at PD1:PDL1 interaction, the “LE (ligand efficiency)” value was 0.06. For the same compound, in data set [1], the ΔGF0 worked out at 0.088 ± 0.02 kcal/mol, the Tm is 3.96 oC, the “Hairpin %-fold 291K” value was 48 ± 1% and the “Hairpin %-fold 310K” value is given as 42 ± 1%. Moreover, in data set [1], the “-TΔSF0” value was 2.40 ± 0.02 kcal/mol, the ΔCpF0 was -107±5 cal.deg-1.mol-1, the ΔHF0 is -2.31 ± 0.03 kcal/mol and the ΔHm is -0.070 ± 0.6 kcal/mol. Also, in data set [1], the “%fold 291K” value was 48%; the “DHm (fitted value, OriginPro two-state fit of CD-melt)” value was -0.0700474 kcal/mol; the “Tm (fitted value, OriginPro two-state fit of CD-melt)” value was 277.107 K. Besides, in data set [1] (setting [2]), the VT-CD %-fold is listed as 48% (B). The “VT-CD Tm (°C)” value in data set [1] (melting temperature from CD-melts, phosphate buffer 15 mM pH 6.5, up to 20% MeOH) is 4 °C.

As to `CSCC[C@H](NC(=O)[C@H](CC(=O)O)NC(=O)CNC(=O)[C@H](CCCNC(=N)N)NC(=O)[C@H](Cc1ccc(O)cc1)NC(=O)[C@H](CC(=O)O)NC(=O)[C@H](CCCNC(=N)N)NC(=O)[C@H](CCCNC(=N)N)NC(=O)[C@H](CCCCN)NC(=O)[C@@H](NC(=O)[C@H](Cc1c[nH]c2ccccc12)NC(=O)[C@@H](N)CCCNC(=N)N)C(C)C)C(=O)NCC(=O)N[C@@H](Cc1ccccc1)C(=O)N[C@@H](CC(=O)O)C(=O)N[C@@H](Cc1ccc(O)cc1)C(=O)N[C@@H](Cc1c[nH]c2ccccc12)C(=O)N[C@H](C(=O)N[C@@H](Cc1c[nH]c2ccccc12)C(=O)N[C@@H](CCC(=O)O)C(=O)O)C(C)C` [2f] (H-RWVKRRDYRGDMGFDYWVWE-OH), the EC50 (in general, the concentration needed to bring the measured effect to its halfway point) on PD1:PDL1 interaction (ELISA, mean of three independent experiments, read-out: EC50 Value) was found to be 862 nM. Moreover, the “LE (ligand efficiency)” value on PD1:PDL1 interaction came to 0.06. In data set [1], the ΔGF0 was -1.33 ± 0.01 kcal/mol, the Tm was 65.4 oC, the “Hairpin %-fold 291K” value amounted to 92 ± 1% and the “Hairpin %-fold 310K” value is 85 ± 1%. Also, in data set [1], the “-TΔSF0” value turned out to be 5.76 ± 0.07 kcal/mol, the ΔCpF0 is -208 ±2 cal.deg-1.mol-1, the ΔHF0 is -7.09 ± 0.07 kcal/mol and the ΔHm was -15.5 ± 0.04 kcal/mol. In addition, in data set [1], the “%fold 291K” value was 92%; the “DHm (fitted value, OriginPro two-state fit of CD-melt)” value is -15.5228 kcal/mol; the “Tm (fitted value, OriginPro two-state fit of CD-melt)” value was found to be 338.533 K. In addition, the VT-CD %-fold in data set [1] (setting [2]) is listed as 92% (B).
